# Assay results as given in patent US7604993B2, “Combined regulation of neural cell production” (Stem Cell Therapeutics Inc., priority 2001, dated 2009).
# Entries after “also recorded” stand apart in the source; their conditions may differ. No end group written: not given here.
# Key:
# neurospheres = test: Multipotency of neurospheres (neuron, oligodendrocyte, astrocyte derived from each neurosphere); assay type: cell-based; settings: neurospheres produced in the factor(s)
# Experimental: The protocols for neural stem cell culture are described in detail in U.S. Pat. No. 5,750,376 or Shingo et al., 2001. Briefly, embryonic neural stem cells were prepared from E14 medial and lateral ganglionic eminences. Adult neural stem cells were prepared from the subventricular zone of adult mice. The tissue was cultured in basal medium containing 20 ng/ml EGF, or other growth factors as indicated in each case, to form neurospheres. The composition of the basal medium is as follows: DMEM/F12 (1:1); glucose (0.6%); glutamine (2 mM); sodium bicarbonate (3 mM); HEPES (5 mM); insulin (25 μg/ml); transferrin (100 μg/ml); progesterone ([…]); putrescine (60 μM); and selenium chloride (30 nM).
# Accordingly, we compared the expandability and multipotency of neurospheres that were produced in EGF alone or EGF plus CNTF. For expandability, pass 1 neurospheres were dissociated and replated at clonal density to generate pass 2 neurospheres, and the number of pass 2 neurospheres that were derived from a single pass 1 sphere was counted. […] Therefore, neural stem cells differentiate to glial cells by default, which can be inhibited by CNTF.
# [1] = test system: neural stem cells in the subventricular zone; test: Subcutaneous administration, number of neural stem cells in the subventricular zone; assay type: in vivo
# [2] = Forelimb asymmetry test in focal ischemic injury (stroke) model; assay type: in vivo; settings: rats with focal ischemic injury; first infusion days 1-7, second infusion days 8-14
# Text: (§1) Adult male Long-Evans rats (250-350 g) were obtained from Charles River Breeding Farms and were adapted to the colony for two weeks prior to any treatment. A week before surgery the rats were given a baseline testing on the behavioral tests.
# (§2) The animals for the stroke study received unilateral devascularization of the sensorimotor cortex. Using Isoflurane anesthesia, the skin was incised and retracted and the overlying fascia were removed from the skull. A skull opening was made at the following coordinates, taking care not to damage the dura: AP +4.0 to −2.0; L 1.5 to 4 (the parasagittal ridge; Kolb et al., 1997). The dura was cut and retracted from the skull opening. A cotton swab soaked in sterile saline was gently rubbed across the exposed pia and the vessels were removed. […]
# (§3) Six days later the animals were assessed using the behavioral test. […]
# Forepaw asymmetry of the animals was determined by filming them from below while in an acrylic cylinder 25 cm in diameter, on an acrylic platform. Preference was determined by separately counting the number of times in 5 minutes that an animal reared and placed the left or right forepaw on the surface of the cylinder in a gesture of postural stabilization. […]
# (§4) The animals then received various test factors, and the effects of these factors on the forelimb inhibition test and brain anatomy were assessed. […]
# [3] = Forelimb inhibition test in focal ischemic injury (stroke) model; assay type: in vivo; settings: rats with focal ischemic injury; first infusion days 1-7, second infusion days 8-14
# Text: as §1
# as §2, with “removed. A hole was then drilled in the contralateral hemisphere to provide an opening for the cannulae attached to the osmotic minipump at AP −0.5; L 1.5.” for “removed.”
# as §3
# In normal rats, swimming is accomplished by propulsion from the hind limbs. […] Inhibition of the forelimbs was assessed by filming animals while swimming. […]
# as §4
# [4] = test system: migrating neuronal progenitor cells; test: Brain anatomical analysis (Cresyl Violet, Doublecortin) in focal ischemic injury (stroke) model; assay type: in vivo; settings: rats with focal ischemic injury, end of week 6
# Text: The animals for the stroke study received unilateral devascularization of the sensorimotor cortex. Using Isoflurane anesthesia, the skin was incised and retracted and the overlying fascia were removed from the skull. A skull opening was made at the following coordinates, taking care not to damage the dura: AP +4.0 to −2.0; L 1.5 to 4 (the parasagittal ridge; Kolb et al., 1997). The dura was cut and retracted from the skull opening. A cotton swab soaked in sterile saline was gently rubbed across the exposed pia and the vessels were removed. A hole was then drilled in the contralateral hemisphere to provide an opening for the cannulae attached to the osmotic minipump at AP −0.5; L 1.5. An osmotic minipump was placed under the skin between the shoulder blades and a tube connected under the skin to the cannulae, which was attached to the skull with fast-drying cement. Once hemostasis had been achieved the scalp was sutured closed with 5-O sterile suture. The animals were given a single injection of Banamine (an analgesic) and returned to their home cage. Sham animals received only anesthesia, the bone opening, and the skin was incised and sutured. […] The animals then received various test factors, and the effects of these factors on the forelimb inhibition test and brain anatomy were assessed. […]
Substance,"glial cells generated by neurospheres, relative to those produced in EGF plus CNTF (neurospheres)",delivery by subcutaneous administration to modulate the number of neural stem cells in the subventricular zone [1],recovery of forelimb asymmetry / motor function in the forelimb asymmetry test [2],forepaw inhibition / motor function in the forelimb inhibition test [3],doublecortin staining / doublecortin positive cells in the brain [4]
"EGF: epidermal growth factor; human recombinant EGF for infusion (NSDSECPLSHDGYCLHDGVCMYIEALDKYACNCVVGYIGERCQYRDLKWWELR; UniProt P01133 971-1023, looked up)",4 times,,,,
"IGF-1: IGF-1, a factor said to proliferate neural stem cells",,effectively delivered,,,
"PACAP: pituitary adenylate cyclase activating polypeptide (HSDGIFTDSYSRYRKQMAVKKYLAAVLGKRYKQRVKNK; ends and bridges not checked; UniProt P18509 132-169, looked up)",,effectively delivered,,,
"growth hormone: growth hormone, first infusion days 1-7, then CSF (Group 5)",,effectively delivered,improvement of motor functions; also recorded: recovered from asymmetrical forelimb usage; also recorded: improved a motor neuron-related function; also recorded: reversed effect,reversed effect,increased doublecortin positive cells
